Test results from patent US20220363848A1, “ANTIMICROBIAL MULTILAYER FILM” (Cryovac, LLC, priority 2019, published 2022).

Tested on: microbes of beef purge inoculum
Test: Modified film test: total aerobic plate count after contact of inoculum with antimicrobial test film
Type: cell-based
Conditions: for Antimicrobial Performance vs. VLDPE Control (percent reduction in microbes), Amide wax alone Erucamide, Test 2: primary additive 10 wt % in Affinity PL 1280G1 C8-VLDPE containing 1664 ppm cis-13-docosenamide
Method: Each of the materials shown in Tables 1 and 2 was compounded into sealant resin, comprised of Affinity PL 1280G, a C8-VLDPE and films were prepared for microbial control testing. The primary additives were tested at 10 wt %. Secondary additives and Cis-13-docosenamide (sold under the trade name Erucamide) were tested as detailed in Table 3.
Test 2: Each of the primary antimicrobial materials in Table 1 was compounded at 10 wt % into sealant resin comprised of Affinity PL 1280G1, a C8-VLDPE containing 1664 ppm of cis-13-docosenamide and films were prepared for microbial control testing.
Tests 3-5: Each of the primary antimicrobial materials in Table 1 was compounded at 10% w/w into sealant resin comprised of Affinity PL 1280G, a C8-VLDPE and 2-3 wt % of the secondary antimicrobials (Table 2) or cis-13-docosenamide were added as detailed in Table 3 and films were prepared for microbial control testing.
Due to the limitations seen in the laboratory with the ISO 22196 test, a modified film test was developed. The test protocol was designed to simulate an actual package environment. […] “Purge” is the liquid that exudes from cut meat or poultry and collects freely in the package. This is typically found in larger packages. The purge liquid can be carefully removed from the packages and used for the following tests. For the tests conducted in this study, beef purge was used. The beef purge is a combination of water, fats, enzymes and meat proteins that drain from the meat. The purge also contains the same bacterial flora as that which contaminates the surface of the meat itself. Thus, this purge could include gram positive bacteria like Lactobacillus species, (Lactic Acid Bacteria), and Listeria species, as well as, gram negative bacteria like E. coli, Campylobacter or Salmonella species.
Antimicrobial films may contain the active ingredient extruded into the surface layer of the film, or coated onto the film. A test method was developed to provide a continuous, uniform coverage of a known amount of the inoculum on the test films.
A 1 inch by 3 inch “tape well” is created on the antimicrobial test film. The “tape well” is crafted by cutting a 1 inch by 3 inch section from a strip of 3 inch wide vinyl tape and applying the tape to the antimicrobial film surface. The test film is secured to a Lexan sheet for stability and handling.
To the well, 0.2 ml of an inoculum is added. The inoculums are either the meat purge or cultures of nutrient broth with E. coli (ATTC #4157 or ATTC #33876) added to the broth. The Escherichia coli is a gram-negative, facultative, anaerobic, rod-shaped, coliform bacterium.
A 1 inch by 3 inch strip of Cryovac brand D-955, a non-barrier film, is placed over the inoculum to provide complete wetting of the test film with the inoculum and to prevent desiccation of the inoculum. The high OTR properties of the D-955 allow growth of the inoculum trapped between the antimicrobial test film and the D-955 film.
Inoculated films are incubated at refrigerated conditions of 40° F. for both 1 and 5 days in a high humidity sealed pouch.
The inoculum is recovered from the well by both adding the inoculum wetted D-955 film over-layment to a distilled water test tube and by swabbing the test film surface twice and placing the swab in the same test tube.
The total aerobic plate count is enumerated using Aerobic Plate Count 3M Petri Film.
Results are reported as log10 CFU/g. The difference in counts between the sample and control is the “delta log CFU/g”. This is mathematically converted to a percent reduction=(1−10^(−delta log CFU/g))*100

[1] = 5 day test, beef purge inoculum, 40° F.

Compound | Antimicrobial Performance vs. VLDPE Control (percent reduction in microbes), Amide wax alone Erucamide, Test 2 [1] | Antimicrobial Performance vs. VLDPE Control (percent reduction in microbes), None Control, Test 1 (primary additive 10 wt % in Affinity PL 1280G C8-VLDPE sealant film, no secondary additive, 5 day test, beef purge inoculum, 40° F.) | Antimicrobial Performance vs. VLDPE Control (percent reduction in microbes), Cleanatis M1 @ 2%, Test 4 (primary additive 10 wt % in VLDPE film plus 2 wt % Cleanatis M1 (With Amide wax), 5 day test, beef purge inoculum, 40° F.) | Antimicrobial Performance vs. VLDPE Control (percent reduction in microbes), Cleanatis M2 @2%, Test 5 (primary additive 10 wt % in VLDPE film plus 2 wt % Cleanatis M2 (With Amide wax), 5 day test, beef purge inoculum, 40° F.) | Antimicrobial Performance vs. VLDPE Control (percent reduction in microbes), KANCOR CLS @ 2%, Test 3 (primary additive 10 wt % in VLDPE film plus 2 wt % Kancor OxiKan CLS (With Amide wax), 5 day test, beef purge inoculum, 40° F.) | Percent Reduction in Microbes of Test Samples at Day 5 versus the "Additive Controls", None Control, Test 1 (primary additive 10 wt % in VLDPE film, control = VLDPE film, Day 5) | Percent Reduction in Microbes of Test Samples at Day 5 versus the "Additive Controls", Amide wax Erucamide, Test 2 (primary additive 10 wt % in VLDPE with Erucamide, control = VLDPE + Erucamide film, Day 5) | Percent Reduction in Microbes of Test Samples at Day 5 versus the "Additive Controls", Cleanatis M1 @ 2%, Test 4 (primary additive 10 wt % plus Cleanatis M1 2%, control = VLDPE + Cleanatis M1 film, Day 5) | Percent Reduction in Microbes of Test Samples at Day 5 versus the "Additive Controls", Cleanatis M2 @2%, Test 5 (primary additive 10 wt % plus Cleanatis M2 2%, control = VLDPE + Cleanatis M2 film, Day 5) | Percent Reduction in Microbes of Test Samples at Day 5 versus the "Additive Controls", KANCOR CLS @ 2%, Test 3 (primary additive 10 wt % plus KANCOR CLS 2%, control = VLDPE + KANCOR CLS film, Day 5)
CCCCCCCC/C=C\CCCCCCCCCCCC(N)=O [Erucamide, Cis-13-docosenamide] | 0% | – | – | – | – | – | – | – | – | –
C[C@H](O)C(=O)[O-].[Na+] [Purasal S98, Sodium L-lactate] | 0% | 0% | 8.8% | 64.5187% | 92.0567% | 0% | 0% | Growth | Growth | 22.3735%
